This is an account of results in patent US6548242B2, “Process for the sterilization of biological compositions and the product thereby” (priority 1990, dated 2003).

Holding throughout (type): cell-based
The test system of assay [1] is platelets. The experiment in a line: Platelet aggregation in response to collagen after treatment of platelet concentrate. Conditions: for % Untreated Control - Extent of Aggregation Response to Collagen, treated / % Untreated Control - Rate of Aggregation Response to Collagen, treated: 25 μg/ml AMT and 90 minutes of UVA in presence of flavonoid; for % Untreated Control - Extent of Aggregation Response to Collagen, treated / % Untreated Control - Rate of Aggregation Response to Collagen, treated / % Untreated Control - Extent of Aggregation Response to Collagen, untreated / % Untreated Control - Rate of Aggregation Response to Collagen, untreated: overnight storage; for % Untreated Control - Extent of Aggregation Response to Collagen, untreated / % Untreated Control - Rate of Aggregation Response to Collagen, untreated: flavonoid present, no AMT/UVA treatment; for Agqregation Response % control: platelet conc., 25 μg/ml AMT.

Assay [2] relates to cell-free vesicular stomatitis virus (VSV).
The subject of assay [3] is bacteriophage M13.
Setting [4] is: 11 mW/cm^2 UVA 30 min, quencher 2 mM.
Setting [5] is: 11 mW/cm^2 UVA 60 min, quencher 2 mM.
Where [6] appears, read: 11 mW/cm^2 UVA 90 min, quencher 2 mM.

Regarding `C[C@@H]1O[C@@H](O[C@H]2[C@H](Oc3cc(O)c4c(c3)O[C@H](c3ccc(O)cc3)CC4=O)O[C@H](CO)[C@@H](O)[C@@H]2O)[C@H](O)[C@H](O)[C@H]1O` [naringin], in assay [1], the “% Untreated Control - Extent of Aggregation Response to Collagen, treated” value turned out to be 78 % Untreated Control; the “% Untreated Control - Rate of Aggregation Response to Collagen, treated” value was found to be 61 % Untreated Control; the “% Untreated Control - Extent of Aggregation Response to Collagen, untreated” value is on record as 90 % Untreated Control; the “% Untreated Control - Rate of Aggregation Response to Collagen, untreated” value was 83 % Untreated Control.
On the same counts, the results for `COc1ccc([C@@H]2CC(=O)c3c(O)cc(O[C@@H]4O[C@H](CO[C@@H]5O[C@@H](C)[C@H](O)[C@@H](O)[C@H]5O)[C@@H](O)[C@H](O)[C@H]4O)cc3O2)cc1O` [hesperidin] are 100 % Untreated Control, 86 % Untreated Control, 98 % Untreated Control and 90 % Untreated Control.
For `CN(C)c1ccc2nc3ccc(=[N+](C)C)cc-3sc2c1` [M8, methylene blue], the “LOG10 VIRUS KILL VSV” value in assay [2] is recorded as “≧5 LOG10”.
As for `N[C@@H](Cc1c[nH]c2ccccc12)C(=O)O` [Tryptophan, tryptophan], the “Agqregation Response % control” value in assay [1] (setting [4]) is given as 70 % control; in assay [1] (11 mW/cm^2 UVA 30 min, quencher 4 mM), 60 % control; in assay [1] (11 mW/cm^2 UVA 30 min, quencher 10 mM), 45 % control; in assay [1] (setting [5]), 50 % control; in assay [1] (11 mW/cm^2 UVA 60 min, quencher 4 mM), 45 % control; in assay [1] (11 mW/cm^2 UVA 60 min, quencher 10 mM) it was 20 % control. Also, the “Agqregation Response % control” value was found to be 30 % control in assay [1] (setting [6]); 20 % control in assay [1] (11 mW/cm^2 UVA 90 min, quencher 4 mM); 0 % control in assay [1] (11 mW/cm^2 UVA 90 min, quencher 10 mM).
For the compound `Cc1c(C)c2c(c(C)c1OP(=O)(O)O)CC[C@@](C)(CCC[C@H](C)CCC[C@H](C)CCCC(C)C)O2` [α-tocopherol phosphate], the “Agqregation Response % control” value in assay [1] (11 mW/cm^2 UVA 30 min, quencher 0.5 mM) is 76 % control; in assay [1] (11 mW/cm^2 UVA 30 min, quencher 1.0 mM), 75 % control; in assay [1] (setting [4]), 70 % control; in assay [1] (11 mW/cm^2 UVA 60 min, quencher 0.5 mM), 55 % control; in assay [1] (11 mW/cm^2 UVA 60 min, quencher 1.0 mM), 60 % control; in assay [1] (setting [5]), 50 % control. Further, the “Agqregation Response % control” value in assay [1] (11 mW/cm^2 UVA 90 min, quencher 0.5 mM) worked out at 35 % control; in assay [1] (11 mW/cm^2 UVA 90 min, quencher 1.0 mM) it was 40 % control; in assay [1] (setting [6]), 30 % control.
For the compound `O=c1cc(-c2ccccc2)oc2cc(O)cc(O)c12` [chrysin], in assay [1], the “% Untreated Control - Extent of Aggregation Response to Collagen, treated” value is 90 % Untreated Control; the “% Untreated Control - Rate of Aggregation Response to Collagen, treated” value turned out to be 85 % Untreated Control; the “% Untreated Control - Extent of Aggregation Response to Collagen, untreated” value is given as 100/100 % Untreated Control; the “% Untreated Control - Rate of Aggregation Response to Collagen, untreated” value was 100/100 % Untreated Control.
With “sodium carpryl N-acetyl tryptophan [SCNAT]”, the “Virus Kill (log10) M13” value in assay [3] is reported as 1.6 log10.
